# Measured values from patent publication US6461997B1, “Triazole sulfones having herbicidal activity” (Monsanto Technology LLC, priority 1999, dated 2002).
# System: SOLNI (black nightshade)
# Test: Pre-emergence herbicidal activity, warm season
# Type: in vivo, Solanum nigrum
# Conditions: GR80 = lowest tested rate (300, 100, 30, 10 g/ha) with 80% or greater inhibition; approx. 14 days after treating; 30/21° C.
# Procedure, shortened: (§1)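 Seeds sown in sterilised fertilised topsoil received surface-applied compound in 50:50 acetone/water, typically at 300, 100, 30 and 10 g/ha, then greenhouse-grown at 30/21° C (warm-season species) or 18/13° C (cool-season species). Percent inhibition versus untreated plants was scored at about 14 days, giving GR80; an asterisk marks activity short of 80% at the top rate.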
row,Compound,Pre-emergence activity (GR80) SOLNI [g/ha]
1,O=C(N1CCCC1)n1cnc(S(=O)(=O)C(F)(F)Cl)n1 [Example 83],300

# System: AMARE (redroot pigweed)
# Test: Pre-emergence herbicidal activity, warm season
# Type: in vivo, Amaranthus retroflexus
# Conditions: GR80 = lowest tested rate (300, 100, 30, 10 g/ha) with 80% or greater inhibition; approx. 14 days after treating; 30/21° C.
# Procedure, shortened: as §1
row,Compound,Pre-emergence activity (GR80) AMARE [g/ha]
1,O=C(N1CCCC1)n1cnc(S(=O)(=O)C(F)(F)Cl)n1 [Example 83],300

# System: CHEAL (common lambsquarters)
# Test: Pre-emergence herbicidal activity, warm season
# Type: in vivo, Chenopodium album
# Conditions: GR80 = lowest tested rate (300, 100, 30, 10 g/ha) with 80% or greater inhibition; approx. 14 days after treating; 30/21° C.
# Procedure, shortened: as §1
row,Compound,Pre-emergence activity (GR80) CHEAL [g/ha]
1,O=C(N1CCCC1)n1cnc(S(=O)(=O)C(F)(F)Cl)n1 [Example 83],100

# System: CONAR (field bindweed)
# Test: Pre-emergence herbicidal activity, warm season
# Type: in vivo, Convolvulus arvensis
# Conditions: GR80 = lowest tested rate (300, 100, 30, 10 g/ha) with 80% or greater inhibition; approx. 14 days after treating; 30/21° C.
# Procedure: Tables 5 to 8 summarize results of tests conducted as described below to determine the pre-emergence herbicidal activity, in the form of a GR80 value, of illustrative compounds of this invention. […] Compounds of the invention were typically applied at rates of 300, 100, 30, and 10 g/ha. Where herbicidal activity was evident but 80% inhibition was not achieved at the highest rate tested, an asterisk (*) is shown in the following tables.
# The pre-emergence tests were conducted by the following procedure. Topsoil was sieved to pass through a 1.27 cm screen. Fertilizer was added to the topsoil and the mixture was then sterilized by heating. The topsoil mixture was placed in a pot and compacted to a depth of 1.0 to 1.25 cm from the top of the pot. Seeds of each of several monocotyledonous and dicotyledonous annual plant species were placed on top of the soil. Additional soil was subsequently placed over the seeds to level-fill the pot. A known amount of each test compound dissolved or suspended in an appropriate organic solvent was diluted with a 50:50 mix of acetone and water and applied to the surface of the soil. After treatment the plants were placed in a greenhouse where they received 0.64 cm of overhead irrigation. All subsequent watering consisted of a light overhead mist and/or subirrigation as needed for germination and growth. Tables 5 and 6 below relate to warm season plant species which were placed after pre-emergence treatment in a greenhouse with a 30/21° C. day/night temperature regime. Tables 7 and 8 below relates to cool season plant species placed after pre-emergence treatment in a greenhouse or growth chamber with an 18/13° C. day/night temperature regime.
# Approximately 14 days after planting and treating, the plants were observed and herbicidal efficacy recorded as percent inhibition by comparison with untreated plants.
# The plant species usually regarded as weeds which were utilized in the tests are identified in the tables below according to the following legend, in which “d” indicates a dicotyledonous species and “m” a monocotyledonous species. All monocotyledonous species included in the tests herein are grasses.
row,Compound,Pre-emergence activity (GR80) CONAR [g/ha]
1,O=C(N1CCCC1)n1cnc(S(=O)(=O)C(F)(F)Cl)n1 [Example 83],300

# System: POROL (common purslane)
# Test: Pre-emergence herbicidal activity, warm season
# Type: in vivo, Portulaca oleracea
# Conditions: GR80 = lowest tested rate (300, 100, 30, 10 g/ha) with 80% or greater inhibition; approx. 14 days after treating; 30/21° C.
# Procedure, shortened: as §1
row,Compound,Pre-emergence activity (GR80) POROL [g/ha]
1,O=C(N1CCCC1)n1cnc(S(=O)(=O)C(F)(F)Cl)n1 [Example 83],100

# System: CIRAR (canada thistle (seedling))
# Test: Pre-emergence herbicidal activity, warm season
# Type: in vivo, Cirsium arvense
# Conditions: GR80 = lowest tested rate (300, 100, 30, 10 g/ha) with 80% or greater inhibition; approx. 14 days after treating; 30/21° C.
# Procedure, shortened: as §1
row,Compound,Pre-emergence activity (GR80) CIRAR [g/ha]
1,O=C(N1CCCC1)n1cnc(S(=O)(=O)C(F)(F)Cl)n1 [Example 83],100

# System: PANMI (wild proso millet)
# Test: Pre-emergence herbicidal activity, warm season
# Type: in vivo, Panicum miliaceum
# Conditions: GR80 = lowest tested rate (300, 100, 30, 10 g/ha) with 80% or greater inhibition; approx. 14 days after treating; 30/21° C.
# Procedure, shortened: as §1
row,Compound,Pre-emergence activity (GR80) PANMI [g/ha]
1,O=C(N1CCCC1)n1cnc(S(=O)(=O)C(F)(F)Cl)n1 [Example 83],100

# System: SORHA (johnsongrass (seedling))
# Test: Pre-emergence herbicidal activity, warm season
# Type: in vivo, Sorghum halepense
# Conditions: GR80 = lowest tested rate (300, 100, 30, 10 g/ha) with 80% or greater inhibition; approx. 14 days after treating; 30/21° C.
# Procedure, shortened: (§2)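 GR80 values derive from percent inhibition relative to untreated plants, read roughly 14 days after sowing and pre-emergence soil-surface treatment (compound in 50:50 acetone/water; rates typically 10, 30, 100, 300 g/ha). Warm-season weeds grew at 30/21° C day/night, cool-season ones at 18/13° C; an asterisk marks activity without reaching 80% at the highest rate.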
row,Compound,Pre-emergence activity (GR80) SORHA [g/ha]
1,O=C(N1CCCC1)n1cnc(S(=O)(=O)C(F)(F)Cl)n1 [Example 83],300

# System: SETFA (giant foxtail)
# Test: Pre-emergence herbicidal activity, warm season
# Type: in vivo, Setaria faberi
# Conditions: GR80 = lowest tested rate (300, 100, 30, 10 g/ha) with 80% or greater inhibition; approx. 14 days after treating; 30/21° C.
# Procedure, shortened: as §2
row,Compound,Pre-emergence activity (GR80) SETFA [g/ha]
1,O=C(N1CCCC1)n1cnc(S(=O)(=O)C(F)(F)Cl)n1 [Example 83],300

# System: SORVU (shattercane)
# Test: Pre-emergence herbicidal activity, warm season
# Type: in vivo, Sorghum vulgare
# Conditions: GR80 = lowest tested rate (300, 100, 30, 10 g/ha) with 80% or greater inhibition; approx. 14 days after treating; 30/21° C.
# Procedure, shortened: as §2
row,Compound,Pre-emergence activity (GR80) SORVU [g/ha]
1,O=C(N1CCCC1)n1cnc(S(=O)(=O)C(F)(F)Cl)n1 [Example 83],300

# System: BRAPP (broadleaf signalgrass)
# Test: Pre-emergence herbicidal activity, warm season
# Type: in vivo, Brachiaria platyphylla
# Conditions: GR80 = lowest tested rate (300, 100, 30, 10 g/ha) with 80% or greater inhibition; approx. 14 days after treating; 30/21° C.
# Procedure, shortened: as §2
row,Compound,Pre-emergence activity (GR80) BRAPP [g/ha]
1,O=C(N1CCCC1)n1cnc(S(=O)(=O)C(F)(F)Cl)n1 [Example 83],100

# System: DIGSA (large crabgrass)
# Test: Pre-emergence herbicidal activity, warm season
# Type: in vivo, Digitaria sanguinalis
# Conditions: GR80 = lowest tested rate (300, 100, 30, 10 g/ha) with 80% or greater inhibition; approx. 14 days after treating; 30/21° C.
# Procedure, shortened: as §1
row,Compound,Pre-emergence activity (GR80) DIGSA [g/ha]
1,O=C(N1CCCC1)n1cnc(S(=O)(=O)C(F)(F)Cl)n1 [Example 83],100

# System: GALAP (catchweed bedstraw)
# Test: Pre-emergence herbicidal activity, cool season
# Type: in vivo, Galium aparine
# Conditions: lowest tested rate with 80% or greater inhibition; rates 300, 100, 30, 10 g/ha; about 14 days
# Procedure, shortened: as §1
row,Compound,"Pre-emergence activity GR80, GALAP [g/ha]"
1,O=C(N1CCCC1)n1cnc(S(=O)(=O)C(F)(F)Cl)n1 [Example 83],100

# System: POLCO (wild buckwheat)
# Test: Pre-emergence herbicidal activity, cool season
# Type: in vivo, Polygonum convolvulus
# Conditions: lowest tested rate with 80% or greater inhibition; rates 300, 100, 30, 10 g/ha; about 14 days
# Procedure, shortened: as §1
row,Compound,"Pre-emergence activity GR80, POLCO [g/ha]"
1,O=C(N1CCCC1)n1cnc(S(=O)(=O)C(F)(F)Cl)n1 [Example 83],300

# System: SINAR (wild mustard)
# Test: Pre-emergence herbicidal activity, cool season
# Type: in vivo, Sinapis arvensis
# Conditions: lowest tested rate with 80% or greater inhibition; rates 300, 100, 30, 10 g/ha; about 14 days
# Procedure, shortened: as §1
row,Compound,"Pre-emergence activity GR80, SINAR"
1,O=C(N1CCCC1)n1cnc(S(=O)(=O)C(F)(F)Cl)n1 [Example 83],[empty]

# System: VERPE (creeping speedwell)
# Test: Pre-emergence herbicidal activity, cool season
# Type: in vivo, Veronica persicaria
# Conditions: lowest tested rate with 80% or greater inhibition; rates 300, 100, 30, 10 g/ha; about 14 days
# Procedure, shortened: as §1
row,Compound,"Pre-emergence activity GR80, VERPE"
1,O=C(N1CCCC1)n1cnc(S(=O)(=O)C(F)(F)Cl)n1 [Example 83],[empty]

# System: SASKR (russian thistle)
# Test: Pre-emergence herbicidal activity, cool season
# Type: in vivo, Salsola kali
# Conditions: lowest tested rate with 80% or greater inhibition; rates 300, 100, 30, 10 g/ha; about 14 days
# Procedure, shortened: as §1
row,Compound,"Pre-emergence activity GR80, SASKR [g/ha]"
1,O=C(N1CCCC1)n1cnc(S(=O)(=O)C(F)(F)Cl)n1 [Example 83],300

# System: STEME (common chickweed)
# Test: Pre-emergence herbicidal activity, cool season
# Type: in vivo, Stellaria media
# Conditions: lowest tested rate with 80% or greater inhibition; rates 300, 100, 30, 10 g/ha; about 14 days
# Procedure, shortened: as §1
row,Compound,"Pre-emergence activity GR80, STEME [g/ha]"
1,O=C(N1CCCC1)n1cnc(S(=O)(=O)C(F)(F)Cl)n1 [Example 83],300

# System: LAMPU (purple deadnettle)
# Test: Pre-emergence herbicidal activity, cool season
# Type: in vivo, Lamium purpureum
# Conditions: lowest tested rate with 80% or greater inhibition; rates 300, 100, 30, 10 g/ha; about 14 days
# Procedure, shortened: as §1
row,Compound,"Pre-emergence activity GR80, LAMPU [g/ha]"
1,O=C(N1CCCC1)n1cnc(S(=O)(=O)C(F)(F)Cl)n1 [Example 83],100

# System: ALOMY (blackgrass)
# Test: Pre-emergence herbicidal activity, cool season
# Type: in vivo, Alopecurus myosuroides
# Conditions: GR80 = lowest tested rate (300, 100, 30, 10 g/ha) with 80% or greater inhibition; approx. 14 days after treating; 18/13° C.
# Procedure, shortened: as §1
row,Compound,Pre-emergence activity (GR80) ALOMY [g/ha]
1,O=C(N1CCCC1)n1cnc(S(=O)(=O)C(F)(F)Cl)n1 [Example 83],300

# System: SETVI (green foxtail)
# Test: Pre-emergence herbicidal activity, cool season
# Type: in vivo, Setaria viridis
# Conditions: GR80 = lowest tested rate (300, 100, 30, 10 g/ha) with 80% or greater inhibition; approx. 14 days after treating; 18/13° C.
# Procedure, shortened: as §1
row,Compound,Pre-emergence activity (GR80) SETVI [g/ha]
1,O=C(N1CCCC1)n1cnc(S(=O)(=O)C(F)(F)Cl)n1 [Example 83],300

# System: AGSST (creeping bentgrass)
# Test: Pre-emergence herbicidal activity, cool season
# Type: in vivo, Agrostis stolonifera
# Conditions: GR80 = lowest tested rate (300, 100, 30, 10 g/ha) with 80% or greater inhibition; approx. 14 days after treating; 18/13° C.
# Procedure, shortened: as §1
row,Compound,Pre-emergence activity (GR80) AGSST [g/ha]
1,O=C(N1CCCC1)n1cnc(S(=O)(=O)C(F)(F)Cl)n1 [Example 83],100
